Source: patent publication US20150197492A1, “NOVEL INDENO[1,2-c]QUINOLIN-11-ONE DERIVATIVES, PREPARATION METHOD AND APPLICATION THEREOF” (National Defense Medical Center, priority 2014, published 2015)
Read-outs that look alike come from different tables or passages of the source.

Columns and labels:
Format in all cases: cell-based
NCI-H522 = test: cells; conditions: NCI-H522 (Non-Small Cell Lung Cancer), 10 μM, 48 hours
DU-145 = test: cells; conditions: DU-145 (Prostate Cancer), 10 μM, 48 hours
NCI-H460 = test: cells; conditions: NCI-H460 (Non-Small Cell Lung Cancer), 10 μM, 48 hours
A549/ATCC = test: cells; conditions: A549/ATCC (Non-Small Cell Lung Cancer), 10 μM, 48 hours
TK-10 = test: cells; conditions: TK-10 (Renal Cancer), 10 μM, 48 hours
SNB-19 = test: cells; conditions: SNB-19 (CNS Cancer), 10 μM, 48 hours
786-0 = test: cells; conditions: 786-0 (Renal Cancer), 10 μM, 48 hours
BT-549 = test: cells; conditions: BT-549 (Breast Cancer), 10 μM, 48 hours
OVCAR-4 = test: cells; conditions: OVCAR-4 (Ovarian Cancer), 10 μM, 48 hours
SW-620 = test: cells; conditions: SW-620 (Colon Cancer), 10 μM, 48 hours
human PC-3 cells = test: Sulforhodamine B (SRB) assay, cytotoxicity against PC-3 cells; conditions: for IC50: Homo sapiens
Procedure: Add 5% Fetal Bovine Serum (FBS) to 96-well plate and fix the cells with 10% TCA after 24 hours of incubation and add the compound (T0). Add DMSO and culture for another 48 hours and the cells are fixed in 0.4% (W/V), 10% TCA and SRB, and […]. Excess SRB is washed off by 1% acetic acid and cells stained with SRB are dissolved in 10 mmol/L Trizma base. The absorbance is measured at 515 nm. The treatment time is 0 (T0), control growth (C) and the increase of the compound (Tx) in the cells are shown below and are used to calculate the increase of the concentration of the compound in percentage. Growth inhibition (GI %) is calculated using the following formula 100−[(TX−T0)/(C−T0)]×100. The 50% growth inhibition concentration (IC50) is used to confirm the concentration of compound and thus results in 50% reduction of the treated cells which control the amount of total protein.
This part of experimental results are SRB assays measuring cytotoxicity of the 26 synthesized compounds against human PC-3 cells and are summarized in Table 1 and 2.

MDA-MB-231/ATCC = test: cells; conditions: MDA-MB-231/ATCC (Breast Cancer), 10 μM, 48 hours
IGROV1 = test: cells; conditions: IGROV1 (Ovarian Cancer), 10 μM, 48 hours
SR = test: cells; conditions: SR (Leukemia), 10 μM, 48 hours
ACHN = test: cells; conditions: ACHN (Renal Cancer), 10 μM, 48 hours
CAKI-1 = test: cells; conditions: CAKI-1 (Renal Cancer), 10 μM, 48 hours
[1] = system: 55 to 60 cancer cell lines; conditions: 10 μM; for inhibition effect in different cancer cell lines (summary of the NCI data, in words) / Mean (mean growth percentage of the tested cancer cell lines): 48 hours; for Mean (mean growth percentage of the tested cancer cell lines): all tested cell lines
SF-295 = test: cells; conditions: SF-295 (CNS Cancer), 10 μM, 48 hours
SK-MEL-28 = test: cells; conditions: SK-MEL-28 (Melanoma), 10 μM, 48 hours
NCI-H23 = test: cells; conditions: NCI-H23 (Non-Small Cell Lung Cancer), 10 μM, 48 hours
CCRF-CEM = test: cells; conditions: CCRF-CEM (Leukemia), 10 μM, 48 hours
SK-MEL-5 = test: cells; conditions: SK-MEL-5 (Melanoma), 10 μM, 48 hours
HOP-62 = test: cells; conditions: HOP-62 (Non-Small Cell Lung Cancer), 10 μM, 48 hours
MDA-MB-435 = test: cells; conditions: MDA-MB-435 (Melanoma), 10 μM, 48 hours
SK-OV-3 = test: cells; conditions: SK-OV-3 (Ovarian Cancer), 10 μM, 48 hours
HL-60 (TB) = test: cells; conditions: HL-60 (TB) (Leukemia), 10 μM, 48 hours
U251 = test: cells; conditions: U251 (CNS Cancer), 10 μM, 48 hours
UACC-257 = test: cells; conditions: UACC-257 (Melanoma), 10 μM, 48 hours
MCF7 = test: cells; conditions: MCF7 (Breast Cancer), 10 μM, 48 hours
[2] = SRB assay, PC-3 cells, 48 hours, read-out: IC50

Structure (SMILES)	growth percentage (NCI-H522) [%]	growth percentage (DU-145) [%]	growth percentage (NCI-H460) [%]	growth percentage (A549/ATCC) [%]	growth percentage (TK-10) [%]	growth percentage (SNB-19) [%]	growth percentage (786-0) [%]	growth percentage (BT-549) [%]	growth percentage (OVCAR-4) [%]	growth percentage (SW-620) [%]	growth percentage (MDA-MB-231/ATCC) [%]	growth percentage (IGROV1) [%]	growth percentage (SR) [%]	growth percentage (ACHN) [%]	growth percentage (CAKI-1) [%]	Mean (mean growth percentage of the tested cancer cell lines) [1] [%]	growth percentage (SF-295) [%]	growth percentage (SK-MEL-28) [%]	growth percentage (NCI-H23) [%]	growth percentage (CCRF-CEM) [%]	also measured
CNc1nc2ccccc2c2c1-c1ccc(Cl)cc1C2=O [SJ-1, 9-Chloro-6-(methylamino)-11H-indeno[1,2-c]quinolin-11-one]	90.50	106.88	84.38	96.83	65.31	95.95	103.34	101.88	72.83	96.25	83.87	54.41	91.67	88.46	73.84	84.15	95.71	114.89	86.83	101.50	Toxicity (%) (human PC-3 cells; SRB assay, PC-3 cells): 52.8%; GI % (10 μM) (human PC-3 cells; SRB assay, PC-3 cells, 10 μM): 100%; inhibition effect in different cancer cell lines (summary of the NCI data, in words) [1]: more effective in breast cancer cell line; growth percentage (SK-MEL-5): 80.96%; growth percentage (HOP-62): 87.10%; growth percentage (MDA-MB-435): 107.24%; growth percentage (SK-OV-3): 92.62%; growth percentage (HL-60 (TB)): 102.75%; growth percentage (U251): 96.03%; growth percentage (UACC-257): 107.69%; growth percentage (MCF7): 5.24%
CN(C)c1nc2ccccc2c2c1-c1ccc(Cl)cc1C2=O [SJ-2, 9-Chloro-6-(dimethylamino)-11H-indeno[1,2-c]quinolin-11-one]	88.97	106.50	94.17	98.85	91.84	104.19	108.01	102.55	84.28	96.35	76.68	83.38	86.12	87.55	84.65	87.15	93.22	113.43	82.62	92.13	IC50 (human PC-3 cells; PC-3, 48 h): 4.34 µM; inhibition effect in different cancer cell lines (summary of the NCI data, in words) [1]: more effective in breast cancer cell line; growth percentage (SK-MEL-5): 94.89%; growth percentage (HOP-62): 78.02%; growth percentage (MDA-MB-435): 97.33%; growth percentage (SK-OV-3): 99.12%; growth percentage (HL-60 (TB)): 95.49%; growth percentage (U251): 98.98%; growth percentage (UACC-257): 101.11%; growth percentage (MCF7): 23.99%
O=C1c2cc(Cl)ccc2-c2c(SCCO)nc3ccccc3c21 [SJ-25, 6-(2-Hydroxyethylthio)-9-chloro-11H-indeno[1,2-c]quinolin-11-one]	68.89	92.27	79.22	76.42	99.82	89.19	100.58	92.88	73.19	86.99	72.56	69.73	61.70	88.12	41.86	79.52	73.28	86.90	66.22	71.56	IC50 (human PC-3 cells; [2]): > 10 µM; growth percentage (SK-MEL-5): 68.56%; growth percentage (HOP-62): 91.46%; growth percentage (MDA-MB-435): 95.15%; growth percentage (HL-60 (TB)): 91.75%; growth percentage (U251): 78.04%; growth percentage (UACC-257): 106.91%; growth percentage (MCF7): 67.82%
O=C1c2cc(Cl)ccc2-c2c(O)nc3ccccc3c21 [SJ-26, 6-Hydroxy-9-chloro-11H-indeno[1,2-c]quinolin-11-one]	92.22	111.80	83.32	104.88	126.63	99.28	114.55	120.08	80.74	95.26	86.98	91.28	77.02	104.75	71.62	96.60	92.48	100.02	81.56	105.78	growth percentage (SK-MEL-5): 84.87%; growth percentage (HOP-62): 91.26%; growth percentage (MDA-MB-435): 100.35%; growth percentage (HL-60 (TB)): 102.31%; growth percentage (U251): 96.46%; growth percentage (UACC-257): 106.31%; growth percentage (MCF7): 68.09%
O=C1c2cc(Cl)ccc2-c2c(Cl)nc3ccccc3c21 [TC-XCl-1, 6,9-Dichloro-11H-indeno[1,2-c]quinolin-11-one]	89.37	113.91	98.68	108.98	138.45	101.30	112.40	119.62	94.13	98.29	87.66	92.82	65.85	111.67	75.67	98.17	92.80	90.08	79.30	64.86	IC50 (human PC-3 cells; [2]): > 15 µM; number of cancer cell lines whose growth is inhibited ([1]; including leukemia and breast cancer cells): 9; growth percentage (SK-MEL-5): 86.30%; growth percentage (HOP-62): 94.89%; growth percentage (MDA-MB-435): 100.46%; growth percentage (HL-60 (TB)): 102.00%; growth percentage (U251): 100.63%; growth percentage (UACC-257): 127.99%; growth percentage (MCF7): 74.25%
